Here are results for 21 molecules from PubChem BioAssay AID264 (DTP/NCI, 2004).

Where “and” joins values, the source holds several entries; their conditions need not be identical. Equal values may be shown once. Records with an inconclusive call do not appear.

In this test the test system is nude mice, LX-1 lung xenograft intrarenal, tumor weight T/C. Briefly: NCI In Vivo Anticancer Drug Screen. Data for tumor model Human Lung LX-1 Xenograft (intrarenal inoculation) in NU/NU Swiss (nude) mice. The following applies: endpoint: mean tumor weight change, higher = larger tumour. In outline:
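Compound-treated mice carrying transplanted tumors were compared with vehicle-treated controls. Tumor size was the measured end point, and the value is the treated-group measurement divided by the control-group measurement (T/C).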

The mark [1] stands for this setting: dose: 300.0 mg/kg/injection, schedule: Q04DX003 (sc), vehicle: saline with Tween-80.
Setting [2] is: dose: 600.0 mg/kg/injection, schedule: Q04DX003 (sc), vehicle: saline with Tween-80.
The mark [3] stands for this setting: dose: 1200.0 mg/kg/injection, schedule: Q04DX003 (sc), vehicle: saline with Tween-80.
The mark [4] stands for this setting: dose: 2400.0 mg/kg/injection, schedule: Q04DX003 (sc), vehicle: saline with Tween-80.
[5] abbreviates: dose: 300.0 mg/kg/injection, schedule: Q04DX003 (sc), vehicle: Klucel (hydroxypropylcellulose) (HPC).
Setting [6] is: dose: 1200.0 mg/kg/injection, schedule: Q04DX003 (sc), vehicle: Klucel (hydroxypropylcellulose) (HPC).
Where [7] appears, read: dose: 200.0 mg/kg/injection, schedule: Q01DX010 (sc), vehicle: saline.
The mark [8] stands for this setting: dose: 25.0 mg/kg/injection, schedule: Q01DX010 (sc), vehicle: saline.
Setting [9] is: dose: 50.0 mg/kg/injection, schedule: Q01DX010 (sc), vehicle: saline.
Where [10] appears, read: dose: 100.0 mg/kg/injection, schedule: Q01DX010 (sc), vehicle: saline.

Regarding `CC(=O)OCc1cc(=O)n(C)c2c3c4c(cc12)c(C)cc(=O)n4CO3`, the T/C was 113 % of control (dose: 25.0 mg/kg/injection, schedule: Q01DX010 (sc), vehicle: Klucel (hydroxypropylcellulose) (HPC)); 83 % of control and 222 % of control (dose: 50.0 mg/kg/injection, schedule: Q01DX010 (sc), vehicle: Klucel (hydroxypropylcellulose) (HPC)); 93 % of control and 105 % of control (dose: 200.0 mg/kg/injection, schedule: Q01DX010 (sc), vehicle: Klucel (hydroxypropylcellulose) (HPC)).

Take `Cc1cc2c(c3oc(C4(C)OC4C4OC4C)cc(=O)c13)C(=O)c1c(O)c(C3CC(C)(N(C)C)C(O)C(C)O3)cc(C3CC(N(C)C)C(O)C(C)O3)c1C2=O` (configuration not stated): the T/C runs as follows: (dose: 0.03 mg/kg/injection, schedule: Q01DX010 (sc), vehicle: saline) 57 % of control; (dose: 0.06 mg/kg/injection, schedule: Q01DX010 (sc), vehicle: saline) 66 % of control.

For `Cn1cnc([N+](=O)[O-])c1[Se]c1nc(N)nc2nc[nH]c12`, the T/C (dose: 12.5 mg/kg/injection, schedule: Q01DX010 (sc), vehicle: water) is 63 % of control; the T/C (dose: 25.0 mg/kg/injection, schedule: Q01DX010 (sc), vehicle: water) is 68 % of control; the T/C (dose: 50.0 mg/kg/injection, schedule: Q01DX010 (sc), vehicle: water) is 176 % of control; the T/C (dose: 100.0 mg/kg/injection, schedule: Q01DX010 (sc), vehicle: water) is 68 % of control.

As for `CCOC(=O)c1[nH]c2cccc3c2c1CC(Br)C3=O` (configuration not stated), the T/C was 87 % of control under setting [1], 88 % of control under setting [2], 84 % of control under setting [3] and 67 % of control under setting [4].

Turning to `O=[N+]([O-])c1ccc(N2CCOCC2)c2c1no[n+]2[O-]`, the T/C is 101 % of control (dose: 150.0 mg/kg/injection, schedule: Q04DX003 (sc), vehicle: saline with Tween-80); 57 % of control under setting [1]; 77 % of control under setting [2]; 98 % of control under setting [3].

On to `Oc1c(Cl)cc(Cl)cc1C1N2CCCCC2C2c3cccn3-c3ccccc3N21` (configuration not stated), for which the T/C is, setting by setting: (dose: 150.0 mg/kg/injection, schedule: Q04DX003 (sc), vehicle: Klucel (hydroxypropylcellulose) (HPC)) 65 % of control; under setting [5], 69 % of control; under setting [6], 74 % of control.

On to `CCCCN(CCCC)C(Cl)=Nc1ccccc1`, for which the T/C (dose: 400.0 mg/kg/injection, schedule: Q04DX003 (sc), vehicle: other) was 116 % of control.

As to `CC(=O)NCCCCCCNC(C)=O`, the T/C runs as follows: under setting [7], 106 % of control; (dose: 400.0 mg/kg/injection, schedule: Q01DX010 (sc), vehicle: saline) 45 % of control; (dose: 800.0 mg/kg/injection, schedule: Q01DX010 (sc), vehicle: saline) 105 % of control and 114 % of control; (dose: 3200.0 mg/kg/injection, schedule: Q01DX010 (sc), vehicle: saline) 96 % of control.

As for `C[C@]12CC[C@@H]3c4ccc(OC(=O)Cc5ccc(N(CCCl)CCCl)cc5)cc4CC[C@H]3[C@@H]1CC[C@@H]2OC(=O)Cc1ccc(N(CCCl)CCCl)cc1`, the T/C is, setting by setting: (dose: 200.0 mg/kg/injection, schedule: Q04DX003 (sc), vehicle: saline with Tween-80) 83 % of control; (dose: 400.0 mg/kg/injection, schedule: Q04DX003 (sc), vehicle: saline with Tween-80) 107 % of control; (dose: 800.0 mg/kg/injection, schedule: Q04DX003 (sc), vehicle: saline with Tween-80) 116 % of control; (dose: 1600.0 mg/kg/injection, schedule: Q04DX003 (sc), vehicle: saline with Tween-80) 90 % of control.

Regarding `CC1=C(C)C(=O)O[C@@H]([C@](C)(O)[C@]2(O)CC[C@@]3(O)[C@@H]4C[C@H]5O[C@]56[C@@H](O)C=CC(=O)[C@]6(C)[C@H]4CC[C@]23C)C1`, the T/C reads like this: (dose: 4.0 mg/kg/injection, schedule: Q01DX010 (sc), vehicle: saline) 61 % of control; (dose: 64.0 mg/kg/injection, schedule: Q01DX010 (sc), vehicle: saline) 121 % of control.

Take `C[N+](C)(C)c1ncnc2c1ncn2C1CCCO1` (configuration not stated): the T/C is 65 % of control (dose: 0.25 mg/kg/injection, schedule: Q01DX010 (sc), vehicle: saline); 106 % of control (dose: 1.0 mg/kg/injection, schedule: Q01DX010 (sc), vehicle: saline); 94 % of control (dose: 2.0 mg/kg/injection, schedule: Q01DX010 (sc), vehicle: saline); 176 % of control (dose: 12.5 mg/kg/injection, schedule: Q01DX010 (sc), vehicle: saline); 120 % of control under setting [8].

With `[Cl][Pt+2][Cl].[NH-]C1CCC1.[NH2-]`, the T/C (dose: 12.5 mg/kg/injection, schedule: Q04DX003 (sc), vehicle: suspension in saline) was 57 % of control.

In the case of `C[N+](C)(C)c1ncnc2nc[nH]c12`, the T/C under setting [9] is 78 % of control, the T/C under setting [10] was 116 % of control and the T/C under setting [7] is 58 % of control.

Turning to `CN(CO)c1nc(N(C)CO)nc(N(C)CO)n1`, the T/C is 92 % of control under setting [8], 57 % of control under setting [9] and 49 % of control under setting [10].

`CCCCCCC(=O)CC(SCC)c1ccccc1Cl` (configuration not stated): the T/C is 82 % of control under setting [1], 96 % of control under setting [2], 92 % of control under setting [3] and 72 % of control under setting [4].

Take `CO[C@@]12[C@H](COC(N)=O)C3=C(C(=O)C(C)=C(N)C3=O)N1C[C@@H]1N[C@@H]12`: the T/C is 98 % of control (dose: 0.63 mg/kg/injection, schedule: Q04DX003 (sc), vehicle: saline); 32 % of control and 40 % of control and 42 % of control (dose: 1.25 mg/kg/injection, schedule: Q04DX003 (sc), vehicle: saline); 42 % of control (dose: 1.5 mg/kg/injection, schedule: Q04DX003 (sc), vehicle: saline); 14 % of control and 16 % of control (2×) (dose: 3.0 mg/kg/injection, schedule: Q04DX003 (sc), vehicle: saline); 3 % of control (dose: 3.0 mg/kg/injection, schedule: Q04DX003 (sc), vehicle: suspension in saline); -55 % of control (dose: 6.0 mg/kg/injection, schedule: Q04DX003 (sc), vehicle: suspension in saline). Further, the T/C (dose: 12.0 mg/kg/injection, schedule: Q04DX003 (sc), vehicle: saline) is -76 % of control.

Take `N#CCCN(C(=S)Nc1cccc(C(F)(F)F)c1)C1CCCCC1`: the T/C is, setting by setting: under setting [5], 60 % of control; (dose: 600.0 mg/kg/injection, schedule: Q04DX003 (sc), vehicle: Klucel (hydroxypropylcellulose) (HPC)) 55 % of control; under setting [6], 77 % of control; (dose: 2400.0 mg/kg/injection, schedule: Q04DX003 (sc), vehicle: Klucel (hydroxypropylcellulose) (HPC)) 80 % of control.

As to `COc1cccc2c1C(=O)c1c(O)c3c(c(O)c1C2=O)C[C@@](O)(/C(CO)=N/NC(=O)c1ccc(Cl)c(Cl)c1)C[C@@H]3OC1CC(N)C(O)C(C)O1` (some centres not stated), the T/C (dose: 8.0 mg/kg/injection, schedule: Q01DX010 (sc), vehicle: water) is 28 % of control; the T/C (dose: 16.0 mg/kg/injection, schedule: Q01DX010 (sc), vehicle: water) was 2 % of control; the T/C (dose: 24.0 mg/kg/injection, schedule: Q04DX003 (sc), vehicle: water) is 54 % of control; the T/C (dose: 48.0 mg/kg/injection, schedule: Q04DX003 (sc), vehicle: water) was 66 % of control; the T/C (dose: 96.0 mg/kg/injection, schedule: Q04DX003 (sc), vehicle: water) is 33 % of control; the T/C (dose: 192.0 mg/kg/injection, schedule: Q04DX003 (sc), vehicle: water) was 30 % of control.

For the molecule `COc1cc(O)c2c(O)c3c(c4c2c1[C@]1(C4)C(C)=CCCC1(C)C)[C@H](O)[C@@]1(O)CC(=O)C(C(N)=O)=C(O)[C@@]1(O)C3=O`, the T/C by setting is: under setting [1], 55 % of control; under setting [2], 58 % of control; under setting [3], 42 % of control.

Consider `COc1cccc2c1C(=O)c1c(O)c3c(c(O)c1C2=O)C[C@@](O)(/C(C)=N\O)C[C@@H]3OC1CC(N)C(O)C(C)O1` (some centres not stated), for which the T/C runs as follows: (dose: 25.0 mg/kg/injection, schedule: Q04DX003 (sc), vehicle: saline) 95 % of control; (dose: 50.0 mg/kg/injection, schedule: Q04DX003 (sc), vehicle: saline) 76 % of control.

Consider `CSc1ccc2c(c1)C(N1CCN(C)CC1)Cc1ccccc1S2` (configuration not stated), for which the T/C runs as follows: (dose: 25.0 mg/kg/injection, schedule: Q04DX003 (sc), vehicle: saline with Tween-80) 152 % of control; (dose: 50.0 mg/kg/injection, schedule: Q04DX003 (sc), vehicle: saline with Tween-80) 88 % of control; (dose: 100.0 mg/kg/injection, schedule: Q04DX003 (sc), vehicle: saline with Tween-80) 171 % of control.
